The record followed here is ChEMBL document CHEMBL5104207, “Synthesis, biological evaluation and computational studies of pyrazole derivatives as Mycobacterium tuberculosis CYP121A1 inhibitors” (RSC Med Chem, 2022).

Activity calls are given as the source filed them. No cut-off for these calls is given here.

This assay has as its system Mycobacterium tuberculosis. Description: Binding affinity to BTFA labelled recombinant Mycobacterium tuberculosis CYP121A1 C171S mutant assessed as change in chemical shift perturbation incubated for 15 mins by 19F NMR spectroscopy.
In the case of `CCOc1ccc(-c2nn(-c3ccc(Cl)cc3)cc2Cn2cncn2)cc1`, the outcome was Active.

On to `CC(C)Oc1ccc(-c2nn(-c3ccc(F)cc3)cc2Cn2ccnc2)cc1`, for which the outcome was Active.

For the compound `COc1ccc(-c2nn(-c3ccc(F)cc3)cc2Cn2ccnc2)cc1`, the result was Active.

As to `COc1ccc(-c2nn(-c3ccc(Cl)cc3)cc2Cn2cncn2)cc1`, the outcome was Active.
